Reference: ChEMBL document CHEMBL1151296, “Ipomopsin, a New Biscoumarin from Ipomopsis aggregata” (J Nat Prod, 1984)
Active and inactive are the calls of the source. The rule behind the calls is not given here.

What was measured:
[1] = tested on: KB; experiment: Cytotoxicity against human KB cells; type: functional, cell-based
[2] = tested on: P388; experiment: Cytotoxicity against mouse P388 cells; type: functional, cell-based

With COc1cc2cc(-c3c(O)c(OC)cc4ccc(=O)oc34)c(=O)oc2cc1O the Activity [1] was “inactive” and the Activity [2] was “inactive”.
